One data set concerns multiple sclerosis. Particulars: humans; cited from earlier work.
Data set [1] relates to healthy subjects. Briefly: Double-blind, placebo-controlled dose titration clinical study; heart rate by continuous telemetry. Type of data set: in vivo, human. The protocol:
A single-center, double-blind, placebo-controlled, dose titration, once-daily, multiple-oral-dose clinical study in healthy subjects was conducted to evaluate the effect of a dosage regimen of FTY720 according to the present invention. A total of 36 subjects were randomly assigned to one of the three groups. Each subject participated in a screening period of maximal 21 days, a baseline period (Day −1), a 9-day dose-administration period, and clinical study completion assessments on Day 10. Subjects were assigned to one of the three groups (dose titration regimen group, placebo control group, or active control group) and received the once daily dose in a double-blinded manner (Table 1). In the dose titration group, increasing once daily doses of Compound A (FTY720), starting at 0.125 mg o.d. and ending at the maximal therapeutic dose of 1.25 mg o.d. were administered on days 1 to 9 of the study according to the schedule shown in Table 1 below. The placebo control group received placebo through out the duration of the study and the active control group received a once daily dose of 1.25 mg of FTY720 on days 1 to 9. [table] Pharmacodynamic and safety assessments are performed up to 24 hours post last dose. Heart rate is monitored via telemetry on Day −1 through Day 10, 24 hour after the last dosing. Heart rhythm is assessed via 24 hr continuous holter monitoring on Day −1, Day 1, and Day 9. For each dosing for each subject, the drug is administered as closely as practically possible to the time administered on Day −1. Safety assessments includes physical examinations, vital signs and body measurements, 12-lead ECG evaluations, standard clinical laboratory evaluations hematology, blood chemistry, urinalysis, adverse event and serious adverse event monitoring. Systolic and diastolic blood pressure and pulse are measured after the subject has rested quietly in the sitting position for at least 3 minutes. Blood pressure is measured at the same arm on each occasion. Standard 12-lead ECGs are recorded at Screening, baseline, 4 hours post-dose on Day 1 and Day 8, and at Study Completion. The variables recorded are: date and time of ECG, heart rate, PR interval, QT interval (uncorrected), QTcB, QRS duration. The overall interpretation is collected with a Yes/No statement to confirm if any clinically relevant abnormalities are present, which needs to be specified further. Subjects remain on continuous telemetry, starting before breakfast on Day −1 and proceeding throughout the administration period up to Day 10 (24 hour after the last dose). Over this ten day duration of continuous heart rate collection for each subject, one heart rate value is obtained every minute (‘minute unit heart rate’), representing the average heart rate value over that minute. The heart rate database for each subject contains approximately 14,400 data points (10 days×24 hr×60 min). 24-hour continuous Holter-ECG data are captured via a digital Holter monitor (12-lead, on Days −1, 1, 6, and 8), and transferred for interpretation and reporting. Holter monitoring starts approximately at 7:00 and the time of dose administration is regarded as the time “0 hours”. Holter “cuts” are derived from the dataset at 1 hour intervals starting from Day −1 and continuing for 24 hours or the end of the cleaned Holter monitoring dataset. Cardiac conduction intervals: arrhythmia monitoring includes the frequency and duration of sinus pauses (>2 sec and >3 sec) and atrio-ventricular blocks. Frequency and duration of atrial and ventricular ectopy and sinus rhythm are also recorded. The daily chronotropic effect is defined as the percent decrease in HRmin (minimum heart rate) between two consecutive days. It is calculated on days 1 to 9.

Data set [2] has as its system healthy subjects. The settings on record: administration of 1.25 mg of FTY720; cited from earlier work.

As to `CCCCCCCCc1ccc(CCC(N)(CO)CO)cc1.Cl` [FTY720, 2-amino-2-[2-(4-octylphenyl)ethyl]propane-1,3-diol], the “efficacy in the treatment of multiple sclerosis” value with multiple sclerosis is “has been demonstrated in humans”. The “additional decrease in daily average heart rate from Day 1 to Day 2” value with healthy subjects [1] (active control group, 1.25 mg once daily, Day 1 to Day 2) is listed as “approximately 3 BPM”. Further, the “decrease in daily average heart rate from Day -1 to Day 1” value with healthy subjects [1] (active control group, 1.25 mg once daily, Day -1 to Day 1) is reported as “approximately 8 BPM”. Further, the “gradual decrease in daily average heart rate per day” value in the data set with healthy subjects [1] (dose titration group 0.125/0.25/0.5/1.25 mg o.d., over the eight day course of the titration) is 1-2 BPM per day. Also, the “heart rate on initiation of 1.25 mg on Day 8 compared to the preceding days” value in the data set on healthy subjects [1] (dose titration group, Day 8, first 1.25 mg dose) is listed as “does not result in dip in heart rate”. In addition, the “daily minimum heart rates during the course of the study” value in the data set on healthy subjects [1] (dose titration regimen compared with 1.25 mg once daily group) is “improved daily minimum heart rates”. Besides, the “negative chronotropic effect on Day 1 of treatment initiation” value in the data set with healthy subjects [1] (dose titration regimen versus 1.25 mg from Day 1) is “attenuates the negative chronotropic effect”. Moreover, the “decrease in heart rate” value in the data set with healthy subjects [2] is “approximately 8 beats/min (BPM)”.

(Values after patent publication US20190091180A1, “DOSAGE REGIMEN FOR A S1P RECEPTOR AGONIST” (Novartis AG, priority 2008, published 2019).)
